Test system: 485176-168-R4-J1-PDC complex spheroid growth
Experiment: Anticancer human tumor 485176-168-R4-J1-PDC patient-derived pancreatic adenocarcinoma cell line growth inhibition [RAS]
Settings: for IC50: curve of first compound; for viability, T/C: stronger effect = lower value
Text: RAS pathway inhibitors in Combinations in Complex Spheroids
A high-throughput screen of multi-cell type tumor spheroids was designed to identify active combinations of RAS pathway inhibitors and targeted small molecules. Complex spheroids include a stromal component modeled by human endothelial cells (HUVEC) and fibroblasts modeled by human mesenchymal stem cells (MSCs). The concentration ranges selected for each drug and investigational agent were based upon clinically achievable concentrations if the clinical Cmax of the agent was known.
Compounds. The drugs and investigational agents: abemaciclib (NSC768073), cobimetinib (NSC768068), divarasib (GDC6063, NSC841802), docetaxel (NSC628503), GDC-1971 (RLY-1971, NSC841576), gemcitabine (NSC613327), inavolisib (NSC800729), ipatasertib (NSC767898), KB-0742 (NSC834161), MRTX-1133 (NSC836407), osimertinib (NSC779217), RMC-4630 (NSC839698), RMC-6236 (NSC851965), RMC-6291 (NSC852671), Ro-3306 (NSC812927), sapanisertib (NSC764658), SN-38 (NSC673596), staurosporine (NSC755774), SY5609 (NSC837396), and tovorafenib (DAY101, NSC766906), were obtained from the National Cancer Institute (NCI) Developmental Therapeutics Program Chemical Repository. The FDA-approved anticancer drug set is available from the NCI Developmental Therapeutics Program. […] The stock solutions were prepared in dimethyl sulfoxide (DMSO, Sigma-Aldrich, St. Louis, MO, cat. D2650) at 800-fold the tested concentration and stored at -70 degrees C prior to their use. All drugs and investigational agents were tested over a range starting from a high concentration at or near the clinical Cmax and decreasing in half-log increments. If the clinical Cmax for an agent had not been determined, the highest concentration tested was 10 microM.
Cell Culture. All cells were maintained in an incubator at 37 degrees C and 5% CO2 with 95% humidity. The PDC lines were cultured according to standard operating procedures established by the NCI PDMR. All PDCs were thawed and cultured in Matrigel-coated flasks prepared with a working solution of 1X Ham's F-12 nutrient mix, without supplementation (Invitrogen, Waltham, MA, cat. 11765054), 100 U/mL penicillin-streptomycin (Invitrogen, cat. 15140122), and 2.5% Matrigel (Corning Inc., Corning, NY, cat. 354248) for the first three passages. The 362531-283-R-J2-PDC and 782815-120-R-J1-PDC lines were cultured in 6C/Colon 1B media, which includes advanced DMEM/F-12 (Thermo Fisher Scientific, cat. 12634028), 10 mM HEPES (Thermo Fisher Scientific, cat. 15630080), 1X GlutaMAX supplement (Thermo Fisher Scientific, cat. 35050061), 0.1 mg/mL primocin (InvivoGen, San Diego, CA, cat. ant-pm-2), 10% defined fetal bovine serum, heat inactivated (HyClone Laboratories Inc., Logan, UT, cat. SH30070.03HI), 50% L-WRN conditioned media (ATCC, cat. CRL-3276), 1.25 mM N-Acetyl-L-cysteine (Sigma-Aldrich, cat. A9165), 10 mM nicotinamide (Sigma-Aldrich, cat. N0636), 1X B-27 supplement (Thermo Fisher Scientific, cat. 17504044), 1X N-2 supplement (Thermo Fisher Scientific, cat. 17502048), 50 ng/mL human EGF (Thermo Fisher Scientific, cat. PHG0311), and 10 microM Y-27632 dihydrochloride (Tocris Bioscience, cat. 1254). The K12877-001-R-J1-PDC line was cultured in 6I media, which includes all 6C/Colon 1B media plus 10 ng/mL human FGF-10 (PeproTech, cat. 100-26), 1 ng/mL human FGF-2 (PeproTech, cat. 100-18B), 1 µM prostaglandin E2 (Tocris Bioscience, cat. 2296), […] hydrocortisone (Sigma-Aldrich, cat. H4001), and […] bovine insulin (Sigma-Aldrich, cat. I6634). The K86415-001-R-J1-PDC line was cultured in 6D media, which includes all 6C/Colon 1B media components minus the L-WRN conditioned media. The 485176-168-R4-J1-PDC was cultured in PANC media, which includes all 6C/Colon 1B media plus 100 ng/mL human FGF-10 (PeproTech, cat. 100-26), 500 nM SB-431542 (Selleckchem, cat. S1067), and 10 nM gastrin (Tocris Bioscience, cat. 3006). […]

[1] = second compound 0.0316 µM, first compound 0.0316 µM
[2] = second compound 0.0316 µM, first compound 0.1 µM
[3] = second compound 0.1 µM, first compound 0.0316 µM
[4] = second compound 0.1 µM, first compound 0.1 µM
[5] = second compound 0.316 µM, first compound 0.0316 µM
[6] = second compound 0.316 µM, first compound 0.1 µM
[7] = second compound 1 µM, first compound 0.0316 µM
[8] = second compound 1 µM, first compound 0.1 µM
[9] = second compound 3.16 µM, first compound 0.0316 µM
[10] = second compound 3.16 µM, first compound 0.1 µM
[11] = second compound 10 µM, first compound 0.0316 µM
[12] = second compound 10 µM, first compound 0.1 µM
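Note: spheroids exposed to compounds for seven days before readout.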
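Throughout, for viability, T/C: luminescence viability expressed relative to DMSO vehicle wells set as 100%.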

Work on `CC(C)n1nc(-c2ccc3oc(N)nc3c2)c2c(N)ncnc21` + C#Cc1c(F)ccc2cc(O)cc(-c3ncc4c(N5CC6CCC(C5)N6)nc(OCC56CCCN5CC(F)C6)nc4c3F)c12 yielded an IC50 (second compound 0.0316 µM) of 31.8 nM, an IC50 (second compound 0.1 µM) of 19 nM and an IC50 (second compound 0.316 µM) of 34.6 nM. The IC50 (second compound 1 µM) was 25 nM, the IC50 (second compound 3.16 µM) was 22.1 nM and the IC50 (second compound 10 µM) was 23.3 nM. The viability, T/C (second compound 0.0316 µM, first compound 0.000316 µM) was 100%, the viability, T/C (second compound 0.0316 µM, first compound 0.001 µM) was 106% and the viability, T/C (second compound 0.0316 µM, first compound 0.00316 µM) was 88.6%. For the same compound, the viability, T/C (second compound 0.0316 µM, first compound 0.01 µM) was 82.3%, the viability, T/C [1] was 49% and the viability, T/C [2] was 19.8%. It also gave a viability, T/C (second compound 0.1 µM, first compound 0.000316 µM) of 96.2%, a viability, T/C (second compound 0.1 µM, first compound 0.001 µM) of 107% and a viability, T/C (second compound 0.1 µM, first compound 0.00316 µM) of 65.4%. For the same compound, the viability, T/C (second compound 0.1 µM, first compound 0.01 µM) was 69.2%, the viability, T/C [3] was 39% and the viability, T/C [4] was 23.7%. It also gave a viability, T/C (second compound 0.316 µM, first compound 0.000316 µM) of 98.3%, a viability, T/C (second compound 0.316 µM, first compound 0.001 µM) of 78.5% and a viability, T/C (second compound 0.316 µM, first compound 0.00316 µM) of 82.5%. For the same compound, the viability, T/C (second compound 0.316 µM, first compound 0.01 µM) was 63.1%, the viability, T/C [5] was 61.7% and the viability, T/C [6] was 20.1%. The viability, T/C (second compound 1 µM, first compound 0.000316 µM) was 88%, the viability, T/C (second compound 1 µM, first compound 0.001 µM) was 91.5% and the viability, T/C (second compound 1 µM, first compound 0.00316 µM) was 86.4%. For the same compound, the viability, T/C (second compound 1 µM, first compound 0.01 µM) was 55.9%, the viability, T/C [7] was 51.9% and the viability, T/C [8] was 22%. For the same compound, the viability, T/C (second compound 3.16 µM, first compound 0.000316 µM) was 91.9%, the viability, T/C (second compound 3.16 µM, first compound 0.001 µM) was 87.7% and the viability, T/C (second compound 3.16 µM, first compound 0.00316 µM) was 78.4%. It also gave a viability, T/C (second compound 3.16 µM, first compound 0.01 µM) of 80%, a viability, T/C [9] of 36.6% and a viability, T/C [10] of 21.5%. For the same compound, the viability, T/C (second compound 10 µM, first compound 0.000316 µM) was 92.3%, the viability, T/C (second compound 10 µM, first compound 0.001 µM) was 81.1% and the viability, T/C (second compound 10 µM, first compound 0.00316 µM) was 80.8%. The viability, T/C (second compound 10 µM, first compound 0.01 µM) was 68.9%, the viability, T/C [11] was 42.5% and the viability, T/C [12] was 20.9%.
In the case of `CC(Nc1ccc2c(c1)OCCn1cc(N3C(=O)OCC3C(F)F)nc1-2)C(N)=O` (centres undefined) + C#Cc1c(F)ccc2cc(O)cc(-c3ncc4c(N5CC6CCC(C5)N6)nc(OCC56CCCN5CC(F)C6)nc4c3F)c12, the IC50 (second compound 0.0316 µM) is reported as > 10000 nM, the IC50 (second compound 0.1 µM) is reported as > 10000 nM and the IC50 (second compound 0.316 µM) is reported as > 10000 nM. The IC50 (second compound 1 µM) was > 10000 nM, the IC50 (second compound 3.16 µM) was > 10000 nM and the IC50 (second compound 10 µM) was > 10000 nM. It also gave a viability, T/C [1] of 97.5%, a viability, T/C [2] of 86.5% and a viability, T/C (second compound 0.0316 µM, first compound 0.316 µM) of 91.8%. The viability, T/C (second compound 0.0316 µM, first compound 1 µM) was 83.5%, the viability, T/C (second compound 0.0316 µM, first compound 3.16 µM) was 59.1% and the viability, T/C (second compound 0.0316 µM, first compound 10 µM) was 65.4%. The viability, T/C [3] was 114%, the viability, T/C [4] was 98.6% and the viability, T/C (second compound 0.1 µM, first compound 0.316 µM) was 71.9%. The viability, T/C (second compound 0.1 µM, first compound 1 µM) was 70.8%, the viability, T/C (second compound 0.1 µM, first compound 3.16 µM) was 69.4% and the viability, T/C (second compound 0.1 µM, first compound 10 µM) was 50%. For the same compound, the viability, T/C [5] was 92.5%, the viability, T/C [6] was 75% and the viability, T/C (second compound 0.316 µM, first compound 0.316 µM) was 88.8%. The viability, T/C (second compound 0.316 µM, first compound 1 µM) was 79.4%, the viability, T/C (second compound 0.316 µM, first compound 3.16 µM) was 75.3% and the viability, T/C (second compound 0.316 µM, first compound 10 µM) was 54.8%. For the same compound, the viability, T/C [7] was 107%, the viability, T/C [8] was 81.1% and the viability, T/C (second compound 1 µM, first compound 0.316 µM) was 85.8%. The viability, T/C (second compound 1 µM, first compound 1 µM) was 90.5%, the viability, T/C (second compound 1 µM, first compound 3.16 µM) was 78% and the viability, T/C (second compound 1 µM, first compound 10 µM) was 56.6%. It also gave a viability, T/C [9] of 107%, a viability, T/C [10] of 94.2% and a viability, T/C (second compound 3.16 µM, first compound 0.316 µM) of 85.8%. For the same compound, the viability, T/C (second compound 3.16 µM, first compound 1 µM) was 79.9%, the viability, T/C (second compound 3.16 µM, first compound 3.16 µM) was 53.4% and the viability, T/C (second compound 3.16 µM, first compound 10 µM) was 56.5%. The viability, T/C [11] was 91.7%, the viability, T/C [12] was 88.9% and the viability, T/C (second compound 10 µM, first compound 0.316 µM) was 67.7%. The viability, T/C (second compound 10 µM, first compound 1 µM) was 71.4%, the viability, T/C (second compound 10 µM, first compound 3.16 µM) was 72.1% and the viability, T/C (second compound 10 µM, first compound 10 µM) was 44%.

Reference: PubChem BioAssay AID2060906 (Molecular Pharmacology Branch, DTP, NCI, 2025)
